From patent US20220257552A1, “METHODS OF PRESCREENING AND TREATING BREAST CANCERS WITH SELECTIVE ANDROGEN RECEPTOR MODULATORS” (priority 2021, published 2022)

Legend:
[1] = system: MCF-7-GFP cells; assay type: cell-based, human
Description: Tumor microenvironment contains tumor epithelial cells, stromal cells, cancer-associated fibroblasts (CAFs), and endothelial cells. The collective function of these cells promotes the aggressive growth of tumors due to secretion of paracrine factors. The CAFs are important for the sustained growth of cancers, and they differ from normal fibroblasts in their capacity to secrete factors that promote proliferation of cancer cells. […] Medium was collected over a period of 10 days and pooled. CAFs were stained with SRB to evaluate the effect of AR ligands on proliferation.
Conditioned medium was replaced on days 4 and 7 and the cells were stained with SRB to measure viability.

[2] = system: metastatic or locally advanced ER+/AR+ breast cancer; test: Phase 2 trial G200802, 9 mg or 18 mg daily, ER+/AR+ breast cancer; assay type: in vivo, human; conditions: for ORR / Best overall objective tumor response, CR (patients) / Best overall objective tumor response, PR (patients): post-hoc; for Best overall objective tumor response, CR (patients) / Best overall objective tumor response, PR (patients): all evaluable patients
Procedure: Each dose arm was treated independently, and each assessed for efficacy using Simon's two-stage (optimal) design (Simon R. Optimal two-stage designs for Phase 2 clinical trials. Controlled Clinical Trials 1989; 10: 1-10). Subjects were randomized in a 1:1 fashion to one of the two dose arms.
Randomization was stratified by subjects presenting with bone only metastases and all other subjects, and further by setting of immediately preceding therapy (adjuvant setting or metastatic setting) in order to balance the proportion of subjects with these presenting features in each dose arm.
Thirty-six to eighty-eight (36-88) subjects with centrally confirmed AR+ who received at least one dose of study drug (evaluable subjects) were needed for primary efficacy analysis purposes and were a subset of the full analysis set (FAS). Fifty patients in the 9 mg cohort and 52 patients in the 18 mg cohort met these criteria. […] Other statistical parameters that were part of the sample size calculation are α=0.025 (one-sided) and power=90%. The first stage in each study arm was assessed among the first 18 evaluable subjects. Greater than 3/18 subjects achieved CB (defined as CR, PR, or SD) at week 24, and both arms proceeded to the second stage of recruitment up to a total of 44 evaluable subjects per arm. Otherwise, the arm would have been discontinued for lack of efficacy. Statistical significance, i.e., rejection of the null hypothesis of an unacceptably low CBR of ≤10% in favor of the alternative hypothesis that indicated the higher rate, ≥30%, was more likely, would be declared if at least 9/44 subjects achieved CB at week 24 in that arm.
These patients on the study had measurable disease at baseline and an AR staining prior to entry into the study. The radiographic imaging in this patient population was done every 12 weeks (2.7 months). Therefore, the minimum radiographic progression free survival (rPFS) that could be determined is approximately 2.7 months. 90% of the patients in the study had previously received non-endocrine based chemotherapy. The patients in this study had failed an average of 2 prior treatment lines for metastatic disease (range=0-5). FIG. 43 provides a scatterplot for the patients in this study with regard to the correlation between % AR-positive staining at baseline (% AR staining) and rPFS. […] However, in patients with greater than or equal to 40% AR-positive staining, the rPFS was delayed to variable extents (scatter plot pattern) in many to most cases. A positive correlation between rPFS and % AR staining was seen above the threshold of 40% AR staining. To explore this positive correlation further, several subgroups of AR % staining were defined and analyzed for metrics of efficacy, as shown in Table 14.

[3] = biological target: T1, GR (Rattus norvegicus, UniProt P06536); test: GR transactivation in HEK-293 cells; assay type: cell-based
T1 construct: expressed in transfected cells
Procedure: Rat GR, MR, PR, ER-α and ER-β were individually cloned into a pCR3.1 vector backbone. Sequencing was performed to verify the absence of any mutations. HEK-293 cells were plated at 90,000 cells per well of a 24 well plate in Dulbecco's Minimal Essential Media supplemented with 5% charcoal-stripped FBS. […] Luciferase assays were performed 48 h after transfection. Transcriptional activation values are represented as firefly luciferase normalized to renilla luciferase.

T1 sequence (P06536 whole entry): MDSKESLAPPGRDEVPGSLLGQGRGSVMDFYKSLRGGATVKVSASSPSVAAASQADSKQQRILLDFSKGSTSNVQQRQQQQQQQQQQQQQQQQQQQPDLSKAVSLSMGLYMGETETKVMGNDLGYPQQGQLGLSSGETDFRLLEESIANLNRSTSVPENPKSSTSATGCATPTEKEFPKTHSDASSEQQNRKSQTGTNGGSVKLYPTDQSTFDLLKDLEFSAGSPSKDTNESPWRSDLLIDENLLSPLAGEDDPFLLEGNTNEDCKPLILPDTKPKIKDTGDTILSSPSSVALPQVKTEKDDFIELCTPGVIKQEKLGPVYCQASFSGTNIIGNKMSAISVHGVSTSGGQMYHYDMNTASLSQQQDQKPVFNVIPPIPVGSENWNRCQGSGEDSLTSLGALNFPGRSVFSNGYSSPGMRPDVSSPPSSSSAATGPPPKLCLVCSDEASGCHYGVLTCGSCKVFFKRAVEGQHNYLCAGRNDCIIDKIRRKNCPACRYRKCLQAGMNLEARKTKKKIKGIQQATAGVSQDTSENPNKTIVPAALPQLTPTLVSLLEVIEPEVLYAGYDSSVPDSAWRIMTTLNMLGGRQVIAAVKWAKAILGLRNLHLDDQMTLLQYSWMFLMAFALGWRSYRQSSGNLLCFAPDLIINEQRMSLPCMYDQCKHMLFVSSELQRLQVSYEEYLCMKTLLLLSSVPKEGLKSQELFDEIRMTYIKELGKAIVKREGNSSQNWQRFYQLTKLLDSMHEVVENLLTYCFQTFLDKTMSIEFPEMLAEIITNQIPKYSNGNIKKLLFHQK

## C[C@](O)(COc1ccc(C#N)cc1)C(=O)Nc1ccc(C#N)c(C(F)(F)F)c1 [Formula IX, (S)—N-(4-Cyano-3-(trifluoromethyl)phenyl)-3-(4-cyanophenoxy)-2-hydroxy-2-methylpropanamide]
[1]
  proliferation of breast cancer CAFs: neither AR agonist, DHT and Formula IX, nor AR antagonist enzalutamide, affected the proliferation
[1]; 10 days
  proliferation of MCF-7-GFP cells fed conditioned medium from treated CAFs: inhibited the proliferation
[2]; 9 mg
  responders with duration of response ≥6 months: 67%
  responders with duration of response ≥12 months: 25%
  Best overall objective tumor response, CR (patients): 3
  Best overall objective tumor response, PR (patients): 8
[2]; 9 mg and 18 mg cohorts, p=0.002
  Quality of life assessments: significant improvement from baseline
[2]; 9 mg and 18 mg doses
  tolerability: well tolerated
[2]; 9 mg arm, 3 patients who failed palbociclib
  patients with complete response: 33%
[2]; 9 mg group
  Median duration of clinical benefit: not reached
[2]; 9 mg, AR nuclei staining <40%
  rPFS: 2.72 months
[2]; 9 mg, AR nuclei staining <40% (0/22)
  ORR: 0%
[2]; 9 mg, AR nuclei staining ≥40%
  rPFS: 5.47 months
[2]; 9 mg, AR nuclei staining ≥40% (12/25)
  ORR: 48%
[2]; 9 mg, patients with objective tumor response, range 2.73 to >27.83
  median duration of response: 8.18 months
[2]; 18 mg arm, 6 patients who failed palbociclib
  response rate: 33%
[2]; 18 mg group (11 months-16.5 months)
  Median duration of clinical benefit: 14.1 months
[2]; 18 mg
  Best overall objective tumor response, CR (patients): 1
  Best overall objective tumor response, PR (patients): 5
[2]; progressed on estrogen blocking agents and CDK 4/6 inhibitor, 4 patients
  objective response in ≥60% AR subgroup: 75%
[2]; progressed on estrogen blocking agents and CDK 4/6 inhibitor, AR ≥40% (7 patients)
  patients with an objective response: 3 patients

## C[C@](O)(COc1ccc(C#N)cc1)C(=O)Nc1ccc(C#N)c(Cl)c1 [Formula VIII, (S)—N-(3-chloro-4-cyanophenyl)-3-(4-cyanophenoxy)-2-hydroxy-2-methylpropanamide]
[3]; all tested concentrations
  GR-mediated transactivation, agonist mode: did not induce
[3]; co-incubation
  dexamethasone-induced GR-mediated transactivation, antagonist mode: failed to alter
